This note sets out measurements from patent publication US9169205B2, “Pyrrolidine derivatives, pharmaceutical compositions and uses thereof” (Boehringer Ingelheim International GmbH, priority 2012, dated 2015).

This assay deals with human ACC2 (Homo sapiens (Human), UniProt O00763). The assay is described as follows: ACC2 assay (spectrophotometric 384 well assay, NADH-linked kinetic method). It counts as biochemical. As to conditions: hACC2 construct lacking 128 N-terminal amino acids, 25° C., 340 nm. The method in brief:
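Baculovirus/insect-cell human ACC2, anion-exchange purified; ADP formation coupled to pyruvate kinase/lactate dehydrogenase, NADH loss followed at 340 nm, 25° C, 15 min. Final 200 μM NADH and acetyl-CoA, 500 uM ATP; vehicle and no-acetyl-CoA wells set 100% and 0%.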

Chain of human ACC2 (O00763 129-2458): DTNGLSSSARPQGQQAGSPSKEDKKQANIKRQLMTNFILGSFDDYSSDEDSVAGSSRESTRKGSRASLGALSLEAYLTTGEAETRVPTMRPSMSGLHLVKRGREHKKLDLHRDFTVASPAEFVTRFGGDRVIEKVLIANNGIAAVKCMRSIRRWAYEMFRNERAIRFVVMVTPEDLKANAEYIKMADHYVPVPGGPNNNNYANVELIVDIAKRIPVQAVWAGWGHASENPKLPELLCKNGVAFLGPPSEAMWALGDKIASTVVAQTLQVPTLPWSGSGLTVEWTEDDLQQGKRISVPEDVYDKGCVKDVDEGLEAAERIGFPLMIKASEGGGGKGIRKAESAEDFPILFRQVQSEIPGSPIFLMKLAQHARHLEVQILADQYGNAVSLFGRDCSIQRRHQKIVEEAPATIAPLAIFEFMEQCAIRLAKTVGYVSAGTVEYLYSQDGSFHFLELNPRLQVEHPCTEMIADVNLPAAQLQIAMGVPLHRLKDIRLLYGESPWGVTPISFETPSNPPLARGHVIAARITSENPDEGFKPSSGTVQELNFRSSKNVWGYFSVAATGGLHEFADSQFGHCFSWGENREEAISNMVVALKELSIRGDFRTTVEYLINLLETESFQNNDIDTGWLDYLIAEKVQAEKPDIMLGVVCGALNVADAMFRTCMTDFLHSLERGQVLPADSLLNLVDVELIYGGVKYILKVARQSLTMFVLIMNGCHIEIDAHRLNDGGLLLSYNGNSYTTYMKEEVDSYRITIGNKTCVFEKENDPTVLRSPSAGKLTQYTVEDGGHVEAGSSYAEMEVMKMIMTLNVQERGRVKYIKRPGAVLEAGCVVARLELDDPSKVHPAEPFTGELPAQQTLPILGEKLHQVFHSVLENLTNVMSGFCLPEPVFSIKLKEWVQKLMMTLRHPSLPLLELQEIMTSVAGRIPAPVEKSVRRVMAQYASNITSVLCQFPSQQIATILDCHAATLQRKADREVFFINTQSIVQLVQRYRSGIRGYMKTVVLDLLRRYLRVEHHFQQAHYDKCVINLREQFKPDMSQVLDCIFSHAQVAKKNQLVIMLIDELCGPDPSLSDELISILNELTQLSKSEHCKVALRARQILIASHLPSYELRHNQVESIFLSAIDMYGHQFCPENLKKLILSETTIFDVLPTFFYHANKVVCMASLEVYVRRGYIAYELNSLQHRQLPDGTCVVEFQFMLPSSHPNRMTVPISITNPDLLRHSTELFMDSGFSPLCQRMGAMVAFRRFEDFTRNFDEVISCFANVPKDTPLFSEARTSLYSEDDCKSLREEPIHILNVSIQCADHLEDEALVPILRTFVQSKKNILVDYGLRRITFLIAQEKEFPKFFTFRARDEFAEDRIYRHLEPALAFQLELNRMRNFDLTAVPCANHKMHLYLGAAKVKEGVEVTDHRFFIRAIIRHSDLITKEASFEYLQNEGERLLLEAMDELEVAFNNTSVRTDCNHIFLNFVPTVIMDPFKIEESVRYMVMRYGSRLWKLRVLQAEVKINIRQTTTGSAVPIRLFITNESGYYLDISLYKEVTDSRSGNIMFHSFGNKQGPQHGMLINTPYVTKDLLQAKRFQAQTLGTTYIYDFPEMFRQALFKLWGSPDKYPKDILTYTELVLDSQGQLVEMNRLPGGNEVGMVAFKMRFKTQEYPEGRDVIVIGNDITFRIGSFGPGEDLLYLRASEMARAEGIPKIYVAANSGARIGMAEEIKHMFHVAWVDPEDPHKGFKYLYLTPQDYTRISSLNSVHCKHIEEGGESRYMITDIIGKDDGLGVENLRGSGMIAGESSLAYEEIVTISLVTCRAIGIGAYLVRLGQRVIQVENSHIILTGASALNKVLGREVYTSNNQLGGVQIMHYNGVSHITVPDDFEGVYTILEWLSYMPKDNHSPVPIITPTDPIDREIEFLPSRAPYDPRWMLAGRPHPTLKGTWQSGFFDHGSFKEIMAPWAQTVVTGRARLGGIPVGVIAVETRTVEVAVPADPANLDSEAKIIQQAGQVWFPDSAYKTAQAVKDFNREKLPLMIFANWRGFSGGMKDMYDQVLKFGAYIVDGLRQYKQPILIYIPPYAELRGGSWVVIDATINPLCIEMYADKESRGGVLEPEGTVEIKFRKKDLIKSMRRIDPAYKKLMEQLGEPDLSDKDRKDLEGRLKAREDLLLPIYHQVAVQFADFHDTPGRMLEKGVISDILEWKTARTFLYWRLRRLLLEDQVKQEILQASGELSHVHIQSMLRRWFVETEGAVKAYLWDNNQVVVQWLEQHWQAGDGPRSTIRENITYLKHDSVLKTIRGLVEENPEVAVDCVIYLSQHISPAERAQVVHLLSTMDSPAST

For orientation: IC50 means the concentration needed to halve the response being measured. In turn, `CC(=O)NC(C)c1ccc(OC2CCN(c3ccc(OCC4CC4)cc3)C2)cc1F` (stereo not shown) [Example 7.2] registered an IC50 of 762 nM.
Under `CC(=O)N[C@@H](C)c1ccc(OC2CCN(c3cc(Cl)ccc3Cl)C2)cc1` (stereo partly shown) [Example 1.58] stands 354 nM.
With `CC(=O)N[C@@H](C)c1ccc(O[C@@H]2CCN(c3cccc(OCC4CC4)c3)C2)cc1` [Example 1.11] the figure was 226 nM; with `Cc1oncc1C(=O)N[C@@H](C)c1ccc(O[C@@H]2CCN(c3ccc(OCC4CC4)cc3)C2)cc1` [Example 2.21], 45 nM.
Under `CC(=O)N[C@@H](C)c1ccc(OC2CCN(c3ccc(OCC4CCCO4)cc3)C2)cc1` (stereo partly shown) [Example 1.21] stands 573 nM; under `CC(=O)N[C@@H](C)c1ccc(OC2CCN(c3ccc4c(c3)OC(F)(F)O4)C2)cc1` (stereo partly shown) [Example 1.80], 574 nM; under `C[C@H](NC(=O)N1CCOCC1)c1ccc(OC2CCN(c3ccc(OCC4CC4)cc3)C2)cc1` (stereo partly shown) [Example 3.5], 198 nM.
The compound `CC(=O)N[C@@H](C)c1ccc(OC2CCN(c3ccc(OCC(F)(F)C(F)F)cc3)C2)cc1` (stereo partly shown) [Example 4.7] yielded an IC50 of 630 nM.
With `CC(=O)N[C@@H](C)c1ccc(OC2CCN(c3ccc(OCC4CC4(F)F)cc3F)C2)cc1` (stereo partly shown) [Example 1.41] the figure was 45 nM.
Compound `Cc1cc(OC2CC2)ccc1N1CC[C@@H](Oc2ccc([C@H](C)NC(=O)CC#N)cc2)C1` [Example 2.59] had an IC50 of 680 nM.
With `CCC(=O)N[C@@H](C)c1ccc(O[C@@H]2CCN(c3ccc(OC(C)C)cc3)C2)cc1` [Example 2.20] the figure was 774 nM.
With `CC(O)C(=O)N[C@@H](C)c1ccc(O[C@@H]2CCN(c3ccc(OCC4CC4)cc3)C2)cc1` (stereo partly shown) [Example 2.33] the figure was 793 nM; with `CC(=O)N[C@@H](C)c1ccc(OC2CCN(c3ccc(OC4CC4)cc3C)C2)nc1` (stereo partly shown) [Example 1.103], 231 nM; with `CCOc1cccc(N2CC[C@@H](Oc3ccc([C@H](C)NC(C)=O)cc3)C2)c1` [Example 1.5], 204 nM.
In turn, `C[C@H](NC(=O)CO)c1ccc(O[C@@H]2CCN(c3ccc(OCC4CC4)cc3)C2)cc1` [Example 2.29] came in with an IC50 of 400 nM.
With `Cc1cc(C(=O)N[C@@H](C)c2ccc(O[C@@H]3CCN(c4ccc(OCC5CC5)cc4)C3)cc2)no1` [Example 2.15] the figure was 315 nM; with `CC(=O)N[C@@H](C)c1ccc(OC2CCN(c3ccc(C4CCC4)cc3)C2)cc1` (stereo partly shown) [Example 1.33], 125 nM; with `CC(=O)N[C@@H](C)c1ccc(OC2CCN(c3ccc(OC(F)F)cc3)C2)cc1` (stereo partly shown) [Example 1.79], 496 nM.
With `CCOc1ccc(N2CCC(Oc3ccc([C@H](C)NC(C)=O)cc3)C2)cc1F` (stereo partly shown) [Example 1.99] the figure was 383 nM; with `C[C@H](NC(=O)c1cnn2ccn(C)c12)c1ccc(O[C@@H]2CCN(c3ccc(OCC4CC4)cc3)C2)cc1` [Example 2.49], 885 nM; with `CCOC(=O)C1(Oc2ccc(N3CCC(Oc4ccc([C@H](C)NC(C)=O)cc4)C3)cc2)CCC1` (stereo partly shown) [Example 4.2], 309 nM.
With `CC(=O)N[C@@H](C)c1ccc(OC2CCN(c3ccc(OCC4CC4(F)F)cc3)C2)cc1` (stereo partly shown) [Example 1.16] the figure was 25 nM.
As to `C[C@H](NC(=O)C1CCC(=O)N1)c1ccc(O[C@@H]2CCN(c3ccc(OCC4CC4)cc3)C2)cc1` (stereo partly shown) [Example 2.2], the IC50 came out at 671 nM.
With `CCOC1CN(c2ccc(OCC3CC3)cc2)CC1Oc1ccc([C@H](C)NC(C)=O)cc1` (stereo partly shown) [Example 1.74] the figure was 1680 nM; with `CC(=O)N[C@@H](C)c1ccc(OC2CCN(c3ccc(OCC4(C(F)(F)F)CC4)cc3)C2)cc1` (stereo partly shown) [Example 1.81], 804 nM; with `Cc1cc(OC2CC2)ccc1N1CC[C@@H](Oc2ccc([C@H](C)NC(=O)c3cnco3)cc2)C1` [Example 2.61], 397 nM.
Under `COC(=O)N[C@@H](C)c1ccc(O[C@@H]2CCN(c3ccc(OCC4CC4)cc3)C2)cc1` [Example 5.1, Methyl-(S)-1-(4-((R)-1-(4-(cyclopropylmethoxy)phenyl)pyrrolidin-3-yloxy)phenyl)-ethylcarbamate] stands 49 nM.
With `Cc1cc(C(=O)N[C@@H](C)c2ccc(O[C@@H]3CCN(c4ccc(OCC5CC5)cc4)C3)cc2)[nH]n1` [Example 2.8] the figure was 330 nM; with `CC(=O)N[C@@H](C)c1ccc(OC2CCN(c3ccc(OC4CCOC4)cc3F)C2)cc1` (stereo partly shown) [Example 1.42], 589 nM; with `CC(=O)N[C@@H](C)c1ccc(OC2CCN(c3ccc(OCC(C)(C)F)cc3)C2)cc1` (stereo partly shown) [Example 1.89], 224 nM.
`C[C@H](NC(=O)C(F)F)c1ccc(O[C@@H]2CCN(c3ccc(OCC4CC4)cc3)C2)cc1` [Example 2.25] had an IC50 of 38 nM.
Under `Cc1cc(OC2CC2)ccc1N1CC[C@@H](Oc2ccc([C@H](C)NC(=O)c3cn[nH]c3)cc2)C1` [Example 2.64] stands 357 nM; under `CCOc1ccc(N2CC[C@@H](Oc3ccc([C@H](C)NC(=O)c4sc(NC(=O)COC(C)=O)nc4C)cc3)C2)cc1` [Example 2.55], 53 nM; under `CC(=O)N[C@@H](C)c1ccc(OC2CCN(c3ccc(Oc4cnccn4)cc3)C2)cc1` (stereo partly shown) [Example 1.69], 440 nM.
With `COc1ccc(N2CCC(Oc3ccc([C@H](C)NC(C)=O)cc3)C2)c(F)c1` (stereo partly shown) [Example 1.22], the IC50 was determined as 559 nM.
Under `CC(=O)N[C@@H](C)c1ccc(OC2CCN(c3cccc(C(F)F)c3)C2)cc1` (stereo partly shown) [Example 1.95] stands 166 nM.
`C[C@H](NC(=O)c1cnn(C)c1)c1ccc(O[C@@H]2CCN(c3ccc(OCC4CC4)cc3)C2)cc1` [Example 2.11]: 132 nM corresponded to half-maximal inhibition (IC50).
Compound `CC(=O)N[C@@H](C)c1ccc(OC2CCN(c3cc(C(F)(F)F)ccc3C)C2)cc1` (stereo partly shown) [Example 1.30] displayed an IC50 of 174 nM.
With `CC(=O)N[C@@H](C)c1ccc(OC2CCN(c3ccc(F)c(F)c3)C2)cc1` (stereo partly shown) [Example 1.28], the midpoint of inhibition, the IC50, lay at 672 nM.
Take `CC(C)Oc1ccc(N2CCC(Oc3ccc([C@H](C)NC(=O)N(C)C)cc3)C2)cc1` (stereo partly shown) [Example 1.65]: the IC50 turned out to be 875 nM.
Under `CC(=O)N[C@@H](C)c1ccc(OC2CCN(c3ccc(OC4CC4)cc3C#N)C2)cc1` (stereo partly shown) [Example 1.73] stands 230 nM.
With `Cc1cc(OC2CC2)ccc1N1CCC(Oc2ccc([C@H](C)NC(=O)N3CCOCC3)cc2)C1` (stereo partly shown) [Example 3.13] the figure was 863 nM.
For `CC(=O)N[C@@H](C)c1ccc(OC2CCN(c3cc(Cl)ccc3C)C2)cc1` (stereo partly shown) [Example 1.60], inhibition was half-maximal at 415 nM (IC50).
